Source: paper PMC10617776, “Bi-steric mTORC1 inhibitors induce apoptotic cell death in tumor models with hyperactivated mTORC1” (The Journal of Clinical Investigation, 2023)

Legend:
[1] = test system: T1, 97-1 TSC1+; test: cells; design: cell proliferation by crystal violet staining, absorbance 540 nm; conditions: 72 h
T1 construct: TSC1 add-back

[2] = test system: T2, 855T Tsc1-; test: cells; design: cell proliferation by crystal violet staining, absorbance 540 nm; conditions: 72 h
T2 construct: Tsc1-null

[3] = test system: T3, 634T Tsc1-; test: cells; design: cell proliferation by crystal violet staining, absorbance 540 nm; conditions: 72 h
T3 construct: Tsc1-null

[4] = test system: T4, 105K Tsc2+; test: cells; design: cell proliferation by crystal violet staining, absorbance 540 nm; conditions: 72 h
T4 construct: Tsc2 add-back

[5] = test system: T5, 705 Tsc2-; test: cells; design: cell proliferation by crystal violet staining, absorbance 540 nm; conditions: 72 h
T5 construct: Tsc2-null

[6] = molecular target: T6, mTOR (mTORC1 and mTORC2) (Homo sapiens, UniProt P42345); test: immunoblot of mTORC1/mTORC2 substrate phosphorylation in cells ([…] h treatment); assay type: cell-based
T6 construct: endogenous mTOR in HCV29 TSC1-null cells

[7] = test system: T7, TTJ Tsc2-; test: cells; design: cell proliferation by crystal violet staining, absorbance 540 nm; conditions: 72 h
T7 construct: Tsc2-null

[8] = test system: T8, TTJ Tsc2+; test: cells; design: cell proliferation by crystal violet staining, absorbance 540 nm; conditions: 72 h
T8 construct: Tsc2 add-back

[9] = test system: T9, 705 TSC2+; test: cells; design: cell proliferation by crystal violet staining, absorbance 540 nm; conditions: 72 h
T9 construct: TSC2 add-back

[10] = test system: T10, RT4 TSC1-; test: cells; design: cell proliferation by crystal violet staining, absorbance 540 nm; conditions: 72 h
T10 construct: TSC1-null

[11] = test system: T11, 97-1 TSC1-; test: cells; design: cell proliferation by crystal violet staining, absorbance 540 nm; conditions: 72 h
T11 construct: TSC1-null

[12] = test system: T12, HCV29 TSC1+; test: cells; design: cell proliferation by crystal violet staining, absorbance 540 nm; conditions: HCV-29, 72 h
T12 construct: TSC1 add-back
Method: (§1) The effect of the compounds on cell proliferation was measured by crystal violet staining. Cells were plated in 96-well plates at a density of 500–2,000 cells (sextuples per condition). The next day, cells were treated with concentrations (0–100 nM) prepared by serial dilution. After 3 days of treatment, cells were fixed by 10% formalin for 10 minutes at room temperature. 0.05% crystal violet solution was added and incubated for 15 minutes at room temperature. Absorbance was read using Synergy HT (BioTek) at 540 nm. The inhibition curves and IC50 values were calculated by GraphPad Prism 9.0. TSC1-null HCV29 (BLCA cell line) and its TSC1–add-back derivative were treated with rapamycin, MLN0128, and bi-steric mTORC1 inhibitors.

[13] = test system: T13, HCV29 TSC1-; test: cells; design: cell proliferation by crystal violet staining, absorbance 540 nm; conditions: HCV-29, 72 h
T13 construct: TSC1-null
Method: as §1

[14] = test system: T14, SNU886 TSC2+; test: cells; design: cell proliferation by crystal violet staining, absorbance 540 nm; conditions: SNU-886, 72 h
T14 construct: TSC2 add-back
Method: as §1

[15] = test system: T15, KTP-267-1B1 Tsc1-; test: cells; design: cell proliferation by crystal violet staining, absorbance 540 nm; conditions: 72 h
T15 construct: Tsc1-null
Method: as §1

[16] = test system: T16, KTP-267-2B8 Tsc1-; test: cells; design: cell proliferation by crystal violet staining, absorbance 540 nm; conditions: 72 h
T16 construct: Tsc1-null

[17] = test system: T17, 857T Tsc1+; test: cells; design: cell proliferation by crystal violet staining, absorbance 540 nm; conditions: 72 h
T17 construct: Tsc1 wild-type

[18] = test system: T18, 105K Tsc2-; test: cells; design: cell proliferation by crystal violet staining, absorbance 540 nm; conditions: 72 h
T18 construct: Tsc2-null

[19] = test system: T19, KTP-269-3C4 Tsc1-; test: cells; design: cell proliferation by crystal violet staining, absorbance 540 nm; conditions: 72 h
T19 construct: Tsc1-null

immunoblot of mTORC1/mTORC2 substrate phosphorylation in cells (4 h treatment) [6]: 10 to 30 nM
IC50 [14]: 44.7 nM
SMILES: CC(C)n1nc(-c2ccc3oc(N)nc3c2)c2c(N)ncnc21 [MLN0128]
IC50 [1]: 46.8 nM
IC50 [2]: 31.6 nM
IC50 [3]: 60.3 nM
IC50 [4]: 79.4 nM
IC50 [5]: 50.1 nM
IC50 [7]: 63.1 nM
IC50 [8]: 50.1 nM
IC50 [9]: 50.1 nM
IC50 [10]: 63.1 nM
IC50 [11]: 39.8 nM
IC50 [12]: 35.5 nM
IC50 [13]: 31.6 nM
IC50 [15]: 44.7 nM
IC50 [16]: 28.2 nM
IC50 [17]: 70.8 nM
IC50 [18]: 41.7 nM
IC50 [19]: 26.9 nM
